Assay results: US12173012B2, “Indolocarbazole analogs of staurosporine and methods of synthesis thereof” (priority 2020, dated 2024)
Read-outs that look alike come from different tables or passages of the source.

Tests used:
[1] = system: MDA-MB-231 breast cancer cell line; assay: cells; details: Homo sapiens, MDA-MB-231, 72 h, read-out: MDA-MB-231 IC50
[2] = system: MDA-MB-231 breast cancer cell line; details: read-out: MDA-MB-231 IC50; MDA-MB-231 cells, 72 h incubation, MTS readout
[3] = system: HMLE breast cancer cell line; details: for IC50: read-out: HMLE IC50

| Compound | IC50 [1] [nM] | IC50 [2] [nM] | fold less active/potent than staurosporine against HMLE cell line [3] [fold] | IC50 [3] [nM] |
| --- | --- | --- | --- | --- |
| CN[C@@H]1C[C@H]2O[C@@](C)([C@@H]1OC)n1c3ccccc3c3c4c(c5c6ccccc6n2c5c31)C(=O)NC4 [Staurosporine] | 2.5 |  |  |  |
| CN[C@@H]1C[C@H]2O[C@@](C)([C@@H]1OC)n1c3cc(O)ccc3c3c4c(c5c6ccccc6n2c5c31)C(=O)NC4 [Compound 14, 10-OH staurosporine] |  | 3.4 | 12.0 | 58.7 |
| CN[C@@H]1C[C@H]2O[C@@](C)([C@@H]1OC)n1c3ccc(O)cc3c3c4c(c5c6ccccc6n2c5c31)C(=O)NC4 [Compound 13, 9-OH staurosporine] |  | 2 | 5.6 | 27.5 |
